The source of these data is patent US5434150A, “Condensed 5-membered heterocyclic compounds, processes for preparing them and pharmaceutical preparations containing these compounds” (Dr. Karl Thomae GmbH, priority 1991, dated 1995).

SMILES strings stand for the structures. Counter-ions that a name gives are not always drawn. Like-named read-outs stand apart in the source and are kept apart here.

The target of one assay is Human Thrombocytes. Description: Fibrinogen binding to human thrombocytes (fibrinogen binding test). As for the experimental part:
1. Fibrinogen Binding to Human Thrombocytes The blood obtained by puncturing an antecubital vein is anticoagulated with trisodium citrate (final concentration: 13 mM) and centrifuged for 10 minutes at 170× g. The supernatant platelet-rich plasma is poured onto a Sepharose 2B column (Pharmacia) and eluted with a solution of 90 mM common salt, 14 mM trisodium citrate, 5 mM glucose and 50 mM tris(hydroxymethyl)aminomethane, adjusted to pH 7.4. The gel-filtered platelets (GFP) appearing before the plasma proteins are used for the binding experiments. 50 μl of a 60 mM calcium chloride solution, 50 μl of a 0.6 mM adenosine diphosphate solution, 100 μl of substance solution or solvent and 50 μl of fibrinogen solution (containing 3 μg of ^125 fibrinogen) are added to 750 μl of GFP and incubated for 20 minutes at ambient temperature. The non-specific binding is determined in the presence of 3 mg/ml of cold fibrinogen. 900 μl of the incubated material are carefully pipetted onto 250 μl of silicon oil (AP 38: AR 20, 1:2 v/v, Wacker Chemie) in Eppendorf tubes and centrifuged for 2 minutes at 10,000× g. The aqueous supernatant and some of the oil are drawn off, the tips of the tubes are cut off together with the platelet pellet and the quantity of bound fibrinogen is determined in a gamma counter. The concentration of substance which brings about a 50% inhibition in fibrinogen binding is determined from a series of concentrations and is given as the IC50 value. | *^125 I fibrogen was replaced by […] |e.

Assay [1] deals with platelet aggregation (platelet-rich plasma). Kind of assay: Antithrombotic activity: inhibition of collagen-induced platelet aggregation in platelet-rich plasma (Born and Cross). The format is cell-based, human (healthy volunteers). The conditions noted are these: 50% change in optical density, human platelet-rich plasma, 10 min preincubation. As for the experimental part:
2. Antithrombotic Activity Method The thrombocyte aggregation is measured using the Born and Cross method (J. Physiol. 170:397 (1964)) in platelet-rich plasma taken from healthy volunteers. To inhibit coagulation the blood is mixed with 3.14% sodium citrate in a ratio by volume of 1:10. Collagen-induced aggregation The pattern of the decrease in optical density of the platelet suspension is photometrically measured and recorded after the addition of aggregation-triggering substance. The rate of aggregation is concluded from the angle of inclination of the density curve. The point on the curve where there is maximum light transmittance is used to calculate the optical density. The amount of collagen used is as small as possible but sufficient to produce an irreversible reaction curve. Standard commercial collagen produced by Hormonchemie of Munich is used. Before the addition of the collagen the plasma is incubated for 10 minutes with the substance at […]. From the measurements obtained an EC50 is determined graphically, indicating a 50% change in the optical density in terms of the inhibition of aggregation.

Setting [2] is: *: 125I fibrinogen replaced by 3H-(3S,5S)-5-[(amidino-biphenylyl)-oxymethyl]-carboxymethyl-pyrrolidinone ligand, read-out: Fibrinogen binding test IC50 (values marked *).
[3] abbreviates: 125I fibrinogen, 50% inhibition of fibrinogen binding, gel-filtered human platelets, ADP, 20 min ambient temperature, read-out: Fibrinogen binding test IC50.

Broadly, the IC50 is the point on the concentration scale where inhibition reaches its midpoint. What is called EC50 is the concentration giving half of the maximal effect. High values mean lower potency in that assay, low ones higher potency in that assay. On to `N=C(N)c1ccc(-c2nc3cc(C(=O)NCCC(=O)O)ccc3n2Cc2cccnc2)cc1` [17(3), 2-(4-amidino-phenyl)-5-[(2-carboxy-ethyl)-aminocarbonyl]-1-(3-pyridylmethyl)-benzimidazole-dihydrobromide], for which, at Human Thrombocytes (setting [2]), the half-maximal inhibitory concentration (IC50) came out at 170 nM. The half-maximal effective concentration (EC50) in assay [1] came out at 430 nM.

Regarding `Cn1c(-c2ccc(C(=N)N)cc2)nc2cc(C(=O)N3CCCC(C(=O)O)C3)ccc21` (centres unmarked) [17(10), 2-(4-amidino-phenyl)-5-[(3-carboxy-piperidino)-carbonyl]-1-methyl-benzimidazole-dihydrobromide], the IC50 at Human Thrombocytes (setting [3]) amounted to 26000 nM. For the same compound, a half-maximal response in assay [1] (EC50) required 27000 nM.

Take `COC(=O)CCNC(=O)c1ccc2c(c1)nc(-c1ccc(C(=N)N)cc1)n2Cc1cccnc1` [3(52), 2-(4-amidino-phenyl)-5-[(2-methoxycarbonyl-ethyl)-aminocarbonyl]-1-(3-pyridylmethyl)-benzimidazole]: the IC50 on Human Thrombocytes (setting [2]) was 4800 nM. Besides, the EC50 in assay [1] was 9500 nM.

For `CNc1cc2c(cc1C(=O)NCCC(=O)O)nc(-c1ccc(C(=N)N)cc1)n2C` [1(139), 2-(4-amidino-phenyl)-5-[(2-carboxy-ethyl)-aminocarbonyl]-1-methyl-6-methylamino-benzimidazole], the half-maximal inhibitory concentration (IC50) at Human Thrombocytes (setting [2]) came out at 410 nM. The compound also displayed an EC50 in assay [1] of 1500 nM.

Turning to `N=C(N)c1ccc(-c2nc3cc(C(=O)NCCC(=O)O)ccc3n2CCCN2CCS(=O)(=O)CC2)cc1` [1(75), 2-(4-amidino-phenyl)-5-[(2-carboxy-ethyl)-aminocarbonyl]-1-[3-(S,S-dioxido-thiomorpholino)-propyl]-benzimidazole], the IC50 at Human Thrombocytes (setting [2]) is 230 nM. The EC50 in assay [1] is 1100 nM.

As for `COc1ccc(CCn2c(-c3ccc(C(=N)N)cc3)nc3cc(C(=O)NCCC(=O)O)ccc32)cc1OC` [17(2), 2-(4-amidino-phenyl)-5-[(2-carboxy-ethyl)-aminocarbonyl]-1-[2-(3,4-dimethoxy-phenyl)-ethyl]-benzimidazole-dihydrobromide], on Human Thrombocytes (setting [2]), the IC50 is 22 nM. The midpoint of the response in assay [1], the EC50, lay at 80 nM.

As for `COC(=O)CCNC(=O)c1cnc2c(c1)nc(-c1ccc(C(=N)N)cc1)n2C` [3(19), 2-(4-amidino-phenyl)-6-[(2-methoxycarbonyl-ethyl)-aminocarbonyl]-3-methyl-imidazo[4,5-b]pyridine], the concentration for half-maximal inhibition (IC50) on Human Thrombocytes (setting [2]) was 280 nM. In assay [1], this compound gave an EC50 of 330 nM.

For `CCCCCCCCCCCCCCn1c(-c2ccc(C(=N)N)cc2)nc2cc(C(=O)NCCC(=O)OC)ccc21` [3(119), 2-(4-amidino-phenyl)-5-[(2-methoxycarbonyl-ethyl)-aminocarbonyl]-1-n-tetradecyl-benzimidazole], the half-inhibitory concentration (IC50) on Human Thrombocytes (setting [2]) was found to be 4600 nM. Further, the 50% effective concentration (EC50) in assay [1] was 39000 nM.

Consider `COC(=O)CCNC(=O)c1ccc2c(c1)nc(-c1ccc(C(=N)N)cc1)n2Cc1ccccc1` [3(48), 2-(4-amidino-phenyl)-1-benzyl-5-[(2-methoxycarbonyl-ethyl)-aminocarbonyl]-benzimidazole-hydrochloride], for which the IC50 at Human Thrombocytes (setting [2]) is 7000 nM. The same compound had a concentration giving a half-maximal response (EC50) in assay [1] of 6400 nM.

As to `N=C(N)c1ccc(-c2nc3cc(C(=O)NCCC(=O)O)ccc3n2CCC(c2ccccc2)c2ccccc2)cc1` [17(9), 2-(4-amidino-phenyl)-5-[(2-carboxy-ethyl)-aminocarbonyl]-1-(3,3-diphenyl-propyl)-benzimidazole-dihydrobromide], the IC50 at Human Thrombocytes (setting [2]) was found to be 9.5 nM. This compound also had a concentration for a half-maximal effect (EC50) in assay [1] of 1140 nM.

Take `COC(=O)CCNC(=O)c1ccc2c(c1)nc(-c1ccc(C(=N)N)cc1)n2CCc1cc(Br)c(N)c(Br)c1` [3(125), 2-(4-amidino-phenyl)-1-[2-(4-amino-3f5-dibromo-phenyl)-ethyl]-5-[(2-methoxycarbonyl-ethyl)-aminocarbonyl]-benzimidazole]: the IC50 at Human Thrombocytes (setting [3]) came out at 2000 nM. This compound returned a half-maximal effective concentration (EC50) in assay [1] of 250 nM.

For the compound `COC(=O)CCCn1c(-c2ccc(C(=N)N)cc2)nc2cc(C(=O)NCCC(=O)OC)ccc21` [3(120), 2-(4-amidino-phenyl)-5-[(2-methoxycarbonyl-ethyl)-aminocarbonyl]-1-(3-methoxycarbonyl-propyl)-benzimidazole-hydrochloride], the IC50 on Human Thrombocytes (setting [2]) was found to be 1300 nM. The compound further showed an EC50 in assay [1] of 2000 nM.

For `COC(=O)CCNC(=O)c1ccc2c(c1)nc(-c1ccc(C(=N)N)cc1)n2CCCCc1ccccc1` [3(122), 2-(4-amidino-phenyl)-5-[(2-methoxycarbonyl-ethyl)-aminocarbonyl]-1-(4-phenyl-butyl)-benzimidazole], the IC50 at Human Thrombocytes (setting [2]) amounted to 4000 nM. The compound also returned a half-maximal effective concentration (EC50) in assay [1] of 8600 nM.

As for `COC(=O)CCNC(=O)c1ccc2c(c1)nc(-c1ccc(CN)cc1)n2CCCN` [Example 6, 2-(4-Aminomethyl-phenyl)-1-(3-amino-propyl)-5-[(2-methoxycarbonyl-ethyl)-aminocarbonyl]-benzimidazole], the half-maximal inhibitory concentration (IC50) at Human Thrombocytes (setting [3]) is 4000 nM. The same compound had an EC50 in assay [1] of 3700 nM.

As for `Cn1c(-c2ccc(C(=N)N)cc2)[n+]([O-])c2cc(C(=O)NCCC(=O)O)ccc21` [1(79), 2-(4-amidino-phenyl)-5-[(2-carboxy-ethyl)-aminocarbonyl]-1-methyl-benzimidazole-3-oxide], the 50% inhibitory concentration (IC50) on Human Thrombocytes (setting [3]) was 41 nM. Moreover, the EC50 in assay [1] came to 80 nM.

For `NCc1ccc(-c2nc3cc(C(=O)NCCC(=O)O)ccc3n2CCCN2CCSCC2)cc1` [1(137), 2-(4-aminomethyl-phenyl)-5-[(2-carboxy-ethyl)-aminocarbonyl]-1-(3-thiomorpholino-propyl)-benzimidazole], the IC50 on Human Thrombocytes (setting [2]) worked out at 1800 nM. The compound further displayed a 50% effective concentration (EC50) in assay [1] of 7000 nM.

With `Cn1c(-c2ccc(C(=N)N)cc2)nc2cc(C(=O)NCCCC(=O)O)ccc21` [Example 1, 2-(4-Amidino-phenyl)-5-[(3-carboxy-propyl)-aminocarbonyl]-1-methyl-benzimidazole], on Human Thrombocytes (setting [3]), the IC50 was 33000 nM. Also, the midpoint of the response in assay [1], the EC50, lay at 27000 nM.

Consider `N=C(N)c1ccc(-c2nc3cc(C(=O)NCCC(=O)O)ccc3n2CCCC(=O)O)cc1` [1(138), 2-(4-amidino-phenyl)-5-[(2-carboxy-ethyl)-aminocarbonyl]-1-(3-carboxy-propyl)-benzimidazole], for which the IC50 at Human Thrombocytes (setting [2]) is 1500 nM. Moreover, the concentration for a half-maximal effect (EC50) in assay [1] came out at 3600 nM.

Consider `CN(CC(=O)O)c1cc2c(cc1C(=O)NCCC(=O)O)nc(-c1ccc(C(=N)N)cc1)n2C` [1(140), 2-(4-amidino-phenyl)-5-[(2-carboxy-ethyl)-aminocarbonyl]-6-(N-carboxymethyl-methylamino)-1-methyl-benzimidazole], for which, on Human Thrombocytes (setting [2]), the 50% inhibitory concentration (IC50) amounted to 220 nM. In addition, the EC50 in assay [1] amounted to 750 nM.

With `NCCCn1c(-c2ccc(CN)cc2)nc2cc(C(=O)NCCC(=O)O)ccc21` [Example 17, 2-(4-Aminomethyl-phenyl)-1-(3-amino-propyl)-5-[(2-carboxy-ethyl)-aminocarbonyl]-benzimidazole-hydrogen acetate], the IC50 at Human Thrombocytes (setting [3]) was 1000 nM. This compound gave a concentration giving a half-maximal response (EC50) in assay [1] of 3800 nM.

`N=C(N)c1ccc(OCc2nc3cc(OCC(=O)O)ccc3[nH]2)cc1` [1(135), 2-[(4-amidino-phenyl)-oxymethyl]-5(6)-carboxymethoxy-benzimidazole]: on Human Thrombocytes (setting [3]), the concentration for half-maximal inhibition (IC50) was 800 nM. Further, in assay [1], the EC50 was 7600 nM.

In the case of `COC(=O)CCNC(=O)c1ccc2c(c1)nc(-c1ccc(C(=N)N)cc1)n2CCCN1CCSCC1` [3(59), 2-(4-amidino-phenyl)-5-[(2-methoxycarbonyl-ethyl)-aminocarbonyl]-1-(3-thiomorpholino-propyl)-benzimidazole], the IC50 on Human Thrombocytes (setting [2]) was determined as 2000 nM. The EC50 in assay [1] was 3800 nM.

`N=C(N)c1ccc(-c2nc3cc(C(=O)NCCC(=O)O)ccc3n2CCCN2CCSCC2)cc1` [1(73), 2-(4-amidino-phenyl)-5-[(2-carboxy-ethyl)-aminocarbonyl]-1-(3-thiomorpholino-propyl)-benzimidazole]: at Human Thrombocytes (setting [2]), the IC50 is 49 nM. The compound further had an EC50 in assay [1] of 160 nM.

In the case of `N=C(N)c1ccc(-c2nc3cc(C(=O)NCCC(=O)O)ccc3n2CCN2CCNCC2)cc1` [Example 15, 2-(4-Amidino-phenyl)-5-[(2-carboxy-ethyl)-aminocarbonyl]-1-(2-piperazino-ethyl)-benzimidazole-hydrogen acetate], on Human Thrombocytes (setting [3]), the IC50 is 28 nM. In addition, the EC50 in assay [1] was determined as 40 nM.

As for `COC(=O)CCCCn1c(=O)c2nc(-c3ccc(C(=N)N)cc3)n(C)c2n(C)c1=O` [3(141), 8-(4-amidino-phenyl)-3,9-dimethyl-1-(4-methoxycarbonyl-butyl)-xanthine hyd rochloride-hydroacetate], on Human Thrombocytes (setting [3]), the half-maximal inhibitory concentration (IC50) stood at 140 nM. The compound also displayed a concentration for a half-maximal effect (EC50) in assay [1] of 80 nM.
